Laboratory results: article PMC4522903 (Chemical communications (Cambridge, England), 2015)

Molecular target: T1, Atm1p (Saccharomyces cerevisiae, UniProt P40416)
T1 sequence (P40416 27-690): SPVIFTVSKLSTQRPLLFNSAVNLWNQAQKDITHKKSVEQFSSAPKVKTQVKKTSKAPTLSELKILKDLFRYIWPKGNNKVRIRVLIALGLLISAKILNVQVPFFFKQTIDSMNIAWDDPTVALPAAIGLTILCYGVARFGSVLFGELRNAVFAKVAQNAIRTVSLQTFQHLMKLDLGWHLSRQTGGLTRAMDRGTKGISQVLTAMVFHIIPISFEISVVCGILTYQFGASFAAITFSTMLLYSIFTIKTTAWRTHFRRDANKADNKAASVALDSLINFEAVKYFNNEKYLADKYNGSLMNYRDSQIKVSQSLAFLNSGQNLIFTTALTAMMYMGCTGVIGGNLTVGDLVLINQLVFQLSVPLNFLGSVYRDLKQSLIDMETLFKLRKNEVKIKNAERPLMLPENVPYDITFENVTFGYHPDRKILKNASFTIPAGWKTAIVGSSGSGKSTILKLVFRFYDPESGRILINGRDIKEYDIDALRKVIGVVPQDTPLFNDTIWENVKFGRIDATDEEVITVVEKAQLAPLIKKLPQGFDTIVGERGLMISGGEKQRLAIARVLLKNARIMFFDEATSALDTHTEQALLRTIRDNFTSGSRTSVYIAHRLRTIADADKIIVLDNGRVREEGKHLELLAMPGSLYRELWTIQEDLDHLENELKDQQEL
Assay: titration of labeled cluster to Atm1p
Format: binding
Settings: labelled compound

Question: Which Kd does the source give for “fluorescein-labeled glutathione [2Fe-2S] cluster” here?
Answer: 118 ± 11 µM
